In publication PMC6006285, “Specific stereochemistry of OP-1074 disrupts estrogen receptor alpha helix 12 and confers pure antiestrogenic activity” (Nature Communications, 2018):
Where “and” joins values, the source holds several entries; their conditions need not be identical. Equal entries are not always repeated. Where two headings read alike, the source gives them in different places.

Key:
[1] = tested on: AP activity in Ishikawa uterine cells; assay: Alkaline phosphatase (AP) assay, agonist mode (absence of E2); type: cell-based, human; conditions: for Induction of AP activity (% E2): Maximum AP activity observed relative to positive control, 500 pM E2, means of n independent experiments ±s.d.; for Maximal AP activity in agonist mode relative to E2 control: absence of E2, normalized to 500 pM E2, representative experiment (Fig. 2a)
Description: (§1) Our primary screen to distinguish pure antiestrogens from SERMs was induction of alkaline phosphatase (AP) activity in Ishikawa uterine cells. […] The reference SERM used in our screen was endoxifen (N-desmethyl-4-hydroxytamoxifen), the most abundant bioactive metabolite of tamoxifen.
(§2) Shown is a representative figure analyzed and presented as above.
(§3) At least 4 h later cells were treated with antiestrogens and media was diluted to 2.5% stripped FBS. Cells were incubated for 3 days, media removed and plates frozen at −80 °C. Thawed plates were incubated with a chromogenic substrate of AP, p-nitrophenyl phosphate (ThermoFisher Scientific, #36721), for 40–60 min at 40 °C, and absorbance read at 405 nm on the Varioskan Lux multimodal plate reader (ThermoFisher Scientific, #VLBL00D0).

ERα = biological target: T1, ERα (Homo sapiens, UniProt P03372); assay: ERα protein levels by immunoblotting; type: cell-based; conditions: MCF-7 cells, 100 nM ligand, 24 h, means of n experiments ±s.d.
T1 construct: endogenous in cells
T1 sequence (P03372 1-595): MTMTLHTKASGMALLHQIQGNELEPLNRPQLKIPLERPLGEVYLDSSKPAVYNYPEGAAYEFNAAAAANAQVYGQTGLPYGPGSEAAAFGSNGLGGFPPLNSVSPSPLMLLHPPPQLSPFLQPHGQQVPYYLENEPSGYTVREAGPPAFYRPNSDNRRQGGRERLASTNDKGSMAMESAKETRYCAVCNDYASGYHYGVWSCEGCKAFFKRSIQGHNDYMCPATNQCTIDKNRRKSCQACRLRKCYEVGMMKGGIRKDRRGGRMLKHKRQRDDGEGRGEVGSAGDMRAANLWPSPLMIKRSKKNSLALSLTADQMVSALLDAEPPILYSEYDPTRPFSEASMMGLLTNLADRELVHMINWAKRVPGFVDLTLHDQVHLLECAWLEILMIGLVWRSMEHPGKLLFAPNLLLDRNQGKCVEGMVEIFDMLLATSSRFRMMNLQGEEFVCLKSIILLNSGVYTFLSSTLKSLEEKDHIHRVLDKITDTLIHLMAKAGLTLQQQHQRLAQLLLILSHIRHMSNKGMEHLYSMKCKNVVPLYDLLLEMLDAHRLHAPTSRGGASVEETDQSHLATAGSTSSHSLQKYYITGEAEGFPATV
Description: However, it is conceivable that under some clinical contexts SERD activity may still be a desirable feature by reducing the number of functional receptors in tumors.
Imaging was performed on FluorChem Imager by Alpha Innotech. […] An uncropped image of the immunoblot is shown in Supplementary Fig. 5.

MCF-7 cells = assay: Inhibition of E2-stimulated proliferation of MCF-7 cells; type: cell-based; conditions: Homo sapiens
[2] = tested on: estrogen responsive reporter gene, ERE-tk109-Luc, in MCF-7 cells; assay: Inhibition of E2-stimulated transcription of ERE-tk109-Luc reporter gene in MCF-7 cells; type: cell-based; conditions: Homo sapiens
CAMA-1 cells = assay: Inhibition of E2-stimulated proliferation of CAMA-1 cells; type: cell-based; conditions: Homo sapiens, CAMA-1, 192 h; read-out: CAMA-1 IC50 proliferation (Fig. 3c)
Description: Shown is a representative figure analyzed and presented as above. d, Western blot of destabilization of ERα protein by OP-1074.
Proliferation was measured using CyQuant fluorescent DNA-binding dye kit (ThermoFisher Scientific, #C7026) using 1:200 GR dye and reading fluorescence at 485 nm excitation and 538 nm emission on the Varioskan Lux multimodal plate reader.

[3] = biological target: T2, Estrogen Receptor α LBD (ERα) (Homo sapiens, UniProt P03372); assay: Competitive ligand binding assay with [3H]-E2; conditions: for IC50: 10 nM [3H]-E2 tracer, 2 nM biotinylated ERα LBD, representative experiment
T2 construct: 2 nM biotinylated Estrogen Receptor α LBD (ERα) was incubated; biotin (biotinylated)
T2 sequence (P03372 311-547 limits assumed): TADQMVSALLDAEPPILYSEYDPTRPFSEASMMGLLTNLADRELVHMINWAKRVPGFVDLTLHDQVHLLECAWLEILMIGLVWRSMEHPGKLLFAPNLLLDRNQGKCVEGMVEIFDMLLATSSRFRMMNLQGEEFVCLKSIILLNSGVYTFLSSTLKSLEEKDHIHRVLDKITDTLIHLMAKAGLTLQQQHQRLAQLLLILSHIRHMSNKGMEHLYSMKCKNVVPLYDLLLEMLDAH
Description: Experimental data points are mean + /− s.e.m. of triplicate samples in a representative experiment. […] Experimental data points are mean + /− s.d. of triplicate samples in a representative experiment
Triplicate reactions were vortexed and 100 μL was added in triplicate to a 96-well streptavidin flashplate (Perkin Elmer #SMP103001PK), which incubated overnight at 4 °C prior to reading.

[4] = tested on: uterus of ovariectomized mice; parameters: method as in PMID 15968821; conditions: cited from earlier work
[5] = tested on: E2-stimulated AP activity in Ishikawa cells; assay: Alkaline phosphatase (AP) assay, antagonist mode (presence of 500 pM E2); type: cell-based, human; conditions: for Antagonism of E2-stimulated AP activity: 500 pM E2
Description: as §1, §2, §3

MCF7/HER2/neu tumors = tested on: MCF7/HER2/neu tumors
Description: MCF7/HER2/neu cells were grown in culture and implanted into 6–7 week athymic ovariectomized female nu/nu mice (Taconic Biosciences). To stimulate tumor growth, 0.18 mg estradiol 90 day release pellets (Innovative Research) were implanted along with cells. […] Tumor volume and bodyweight were measured twice weekly. At end of the study animals were euthanized, tumors resected and snap frozen in liquid nitrogen, and uteri were resected, weighed, and fixed in 10% formalin.

uterus = conditions: cited from earlier work
AP = tested on: AP; parameters: method as in Holinka et al.; conditions: ref Holinka et al.; cited from earlier work
[6] = MCF7, read-out: IC50 proliferation
[7] = MCF7, 24 h, read-out: IC50 transcription
[8] = MCF7, 168 h, read-out: MCF-7 IC50 proliferation (Fig. 3b)
[9] = MCF7, 22 h, read-out: IC50 inhibition of E2-stimulated transcription (Fig. 3a)
[10] = number of 10 tumors at end of study, OP-1074 100 mg/kg oral twice daily, fulvestrant 100 mg/kg subcutaneous daily

Row | Relative ERα protein levels (% vehicle) (ERα) | IC50 (MCF-7 cells; [6]) [nM] | IC50 [2, 7] [nM] | IC50 (MCF-7 cells; [8]) [nM] | IC50 [2, 9] [nM] | SMILES | Induction of AP activity (% E2) [1] | Maximal AP activity in agonist mode relative to E2 control ([1]; 3 days) [%] | IC50 (CAMA-1 cells) [nM] | other results
1 | 119% ± 13 (n = 6) % vehicle | 6.4 ± 1 | 0.5 ± 0.1 | – | – | CC1=C(c2ccc(O)cc2)C(c2ccc(OCCN3CCC[C@H]3C)cc2)Oc2cc(O)ccc21 (some centres unmarked) [OP-1039] | 49% ± 18 (n = 8) % E2 | – | – | –
2 | 152% ± 31 (n = 4) % vehicle | 5.2 ± 1.3 | 5.9 ± 2.1 | 6.3 | 4 | CC1=C(c2ccc(O)cc2)[C@H](c2ccc(OCCN3CCCC3)cc2)Oc2cc(O)ccc21 [OP-1156] | 40% ± 7.8 (n = 3) % E2 | 40 | 4.2 | IC50 [3]: 6 nM and 6.13 nM; Uterine wet weight [4]: increased uterine wet weight
3 | 319% ± 100 (n = 5) % vehicle | 5.5 ± 1.4 | 1.3 ± 0.4 | – | – | CC1=C(c2ccc(O)cc2)C(c2ccc(OCCN3CCC[C@@H]3C)cc2)Oc2cc(O)ccc21 (some centres unmarked) [OP-1047] | 136% ± 15 (n = 4) % E2 | – | – | –
4 | 123% ± 22 (n = 4) % vehicle | 6 ± 1.1 | 5.6 ± 2.1 | 6.9 | 4 | CC1=C(c2ccc(O)cc2)[C@H](c2ccc(OCCN3CC[C@H](C)C3)cc2)Oc2cc(O)ccc21 [OP-1154] | 40% ± 6.5 (n = 3) % E2 | 39 | 8.1 | Antagonism of E2-stimulated AP activity ([5]; Ishikawa cells): did not completely antagonize E2-stimulated AP activity; IC50 [3]: 14.3 ± 0.06 nM; Binding affinity relative to OP-1074 and OP-1156 (fold lower) ([3]; [3H]-E2 competitive binding): approximately 2 fold

Continued, molecule first:

Row | SMILES | Relative ERα protein levels (% vehicle) (ERα) | IC50 (MCF-7 cells; [6]) [nM] | IC50 [2, 7] [nM] | IC50 (MCF-7 cells; [8]) [nM] | IC50 [2, 9] [nM] | Induction of AP activity (% E2) [1] | Maximal AP activity in agonist mode relative to E2 control ([1]; 3 days) [%] | IC50 (CAMA-1 cells) [nM] | other results
5 | CC/C(=C(\c1ccc(O)cc1)c1ccc(OCCNC)cc1)c1ccccc1 [endoxifen, (Z)-4-hydroxy-N-desmethyltamoxifen, reference compound] | 139% ± 34 (n = 20) % vehicle | 13 ± 2.2 | 6.3 ± 1.3 | – | – | 73% ± 10 (n = 8) % E2 | 82 | – | AP activity remaining in antagonist mode ([5]; Ishikawa cells, 500 pM E2, 1 µM drug): 58%
6 | C[C@]12CC[C@@H]3c4ccc(O)cc4C[C@@H](CCCCCCCCC[S+]([O-])CCCC(F)(F)C(F)(F)F)[C@H]3[C@@H]1CC[C@@H]2O (some centres unmarked) [fulvestrant, reference compound] | – | 2.5 ± 0.3 | 2 ± 0.2 | 2.2 | 6.3 | 0.05% ± 2.7 (n = 58) % E2 | – | 1.9 | AP activity in agonist mode ([1]; 3 days, absence of E2, all doses tested): lacked any AP activity; IC50 ([5]; Homo sapiens, Ishikawa, 72 h, read-out: IC50 inhibition of E2-stimulated AP activity): 3 nM; Antagonism of E2-stimulated AP activity ([5]; Ishikawa cells): completely inhibited E2-stimulated AP activity; Tumors shrunk / growth inhibited by >50% (MCF7/HER2/neu tumors; [10]): 5/10; Tumors shrunk >80% (MCF7/HER2/neu tumors; [10]): 1/10
7 | CC/C(=C(/c1ccc(/C=C/C(=O)O)cc1)c1ccc2[nH]ncc2c1)c1ccc(F)cc1Cl [GDC-0810] | – | – | – | – | – | – | – | – | Agonist effects in the uterus (uterus): mild to moderate agonist effects in the uterus
8 | CCNCCc1ccc(CN(CC)c2cc(OC)ccc2[C@@H]2CCc3cc(O)ccc3C2)cc1 [RAD1901] | – | – | – | – | – | – | – | – | Agonist effects in the uterus (uterus): mild to moderate agonist effects in the uterus
9 | CC/C(=C(\c1ccc(O)cc1)c1ccc(OCCN(C)C)cc1)c1ccccc1 [4-OHT, (Z)-4-trans-hydroxytamoxifen] | – | – | – | – | – | – | – | – | Activation of AP (AP): 1.3 fold
10 | CC/C(=C(\c1ccccc1)c1ccc(OCCN(C)C)cc1)c1ccccc1 [tamoxifen, reference compound] | – | – | – | – | – | – | – | – | Tumors shrunk below the initial tumor size (MCF7/HER2/neu tumors; end of study, 100 mg/kg tamoxifen daily by oral gavage): half
